Results published in patent US8188127B2, “Microbicidal composition” (Rohm and Haas Company, priority 2007, dated 2012).

Assays:
Format in all cases: cell-based
A. niger ATCC # 16404 = test: Microtiter plate MIC / synergy test (Kull synergy index), mold, PDB medium; details: for Ca: MIC of BIOBAN1246 alone: component alone; for Ca: ppm AI of first component (A) alone (MIC, QA): A. niger
Source text: (§1) One measure of synergism is the industrially accepted method described by Kull, F. C.; Eisman, P. C.; Sylwestrowicz, H. D. and Mayer, R. L., in Applied Microbiology 9:538-541 (1961), using the ratio determined by the formula: Qa/QA+Qb/QB=Synergy Index (“SI”) wherein: • QA=concentration of compound A (first component) in ppm, acting alone, which produced an end point (MIC of Compound A). • Qa=concentration of compound A in ppm, in the mixture, which produced an end point. • QB=concentration of compound B (second component) in ppm, acting alone, which produced an end point (MIC of Compound B). • Qb=concentration of compound B in ppm, in the mixture, which produced an end point.
(§2) When the sum of Qa/QA and Qb/QB is greater than one, antagonism is indicated. […] The lower the SI, the greater the synergy shown by that particular mixture. The minimum inhibitory concentration (MIC) of a microbicide is the lowest concentration tested under a specific set of conditions that prevents the growth of added microorganisms.
(§3) Synergy tests were conducted using standard microtiter plate assays with media designed for optimal growth of the test microorganism. Minimal salt medium supplemented with 0.2% glucose and 0.1% yeast extract (M9GY medium) was used for testing bacteria; Potato Dextrose Broth (PDB medium) was used for testing yeast and mold. In this method, a wide range of combinations of microbicides was tested by conducting high resolution MIC assays in the presence of various concentrations of MBIT. High resolution MICs were determined by adding varying amounts of microbicide to one column of a microtitre plate and doing subsequent […] dilutions using an automated liquid handling system to obtain a series of endpoints ranging from 2 ppm to 10,000 ppm active ingredient.
(§4) The synergy of the combinations of the present invention was determined against several microorganisms, as described in the Tables below. The bacteria were used at a concentration of about 5×10^6 bacteria per mL and the yeast and mold at 5×10^5 fungi per mL. These microorganisms are representative of natural contaminants in many consumer and industrial applications. […] (yeast and mold) or 30° C. (bacteria).
(§5) In each test, Second Component (B) was MBIT and the First Component (A) was the other commercial microbicide.

[1] = system: Ps. aeruginosa ATCC # 9027; test: Microtiter plate MIC / synergy test (Kull synergy index), bacteria, M9GY medium; details: for Ca: MIC of BIOBAN1246 alone: component alone; for Ca: ppm AI of first component (A) alone (MIC, QA): Ps. aeruginosa
Description: as §2, §3
The bacteria were used at a concentration of about 5×10^6 bacteria per mL and the yeast and mold at 5×10^5 fungi per mL. These microorganisms are representative of natural contaminants in many consumer and industrial applications. […] (yeast and mold) or 30° C. (bacteria).
as §5

S. aureus ATCC # 6538 = test: as above; details: for Ca: MIC of BIOBAN1246 alone: component alone; for Ca: ppm AI of first component (A) alone (MIC, QA): S. aureus
Source text: as §1, §2, §3, §4, §5

C. albicans ATCC # 10231 = test: Microtiter plate MIC / synergy test (Kull synergy index), yeast, PDB medium; details: for Ca: MIC of BIOBAN1246 alone: component alone; for Ca: ppm AI of first component (A) alone (MIC, QA): C. albicans
Source text: as §1, §2, §3, §4, §5

Structure (SMILES) | Ca: MIC of BIOBAN1246 alone (A. niger ATCC # 16404; A. niger ATCC # 16404, contact time 3 days) [ppm AI] | Ca: MIC of BIOBAN1246 alone (A. niger ATCC # 16404; A. niger ATCC # 16404, contact time 7 days) [ppm AI] | Ca: MIC of BIOBAN1246 alone ([1]; Ps. aeruginosa ATCC # 9027, contact time 24 hrs) [ppm AI] | Ca: MIC of BIOBAN1246 alone ([1]; Ps. aeruginosa ATCC # 9027, contact time 48 hrs) [ppm AI] | Ca: MIC of BIOBAN1246 alone (S. aureus ATCC # 6538; S. aureus ATCC # 6538, contact time 24 hrs) [ppm AI] | Ca: MIC of BIOBAN1246 alone (S. aureus ATCC # 6538; S. aureus ATCC # 6538, contact time 48 hrs) [ppm AI] | Ca: MIC of BIOBAN1246 alone (C. albicans ATCC # 10231; C. albicans ATCC # 10231, contact time 48 hrs) [ppm AI] | Ca: MIC of BIOBAN1246 alone (C. albicans ATCC # 10231; C. albicans ATCC # 10231, contact time 72 hrs) [ppm AI] | Ca: ppm AI of first component (A) alone (MIC, QA) (A. niger ATCC # 16404; contact time 3 days) [ppm AI] | Ca: ppm AI of first component (A) alone (MIC, QA) (A. niger ATCC # 16404; contact time 7 days) [ppm AI] | Ca: ppm AI of first component (A) alone (MIC, QA) ([1]; contact time 24 hrs) [ppm AI] | Ca: ppm AI of first component (A) alone (MIC, QA) ([1]; contact time 48 hrs) [ppm AI] | Ca: ppm AI of first component (A) alone (MIC, QA) (S. aureus ATCC # 6538; contact time 24 hrs) [ppm AI] | Ca: ppm AI of first component (A) alone (MIC, QA) (S. aureus ATCC # 6538; contact time 48 hrs) [ppm AI] | Ca: ppm AI of first component (A) alone (MIC, QA) (C. albicans ATCC # 10231; contact time 48 hrs) [ppm AI] | Ca: ppm AI of first component (A) alone (MIC, QA) (C. albicans ATCC # 10231; contact time 72 hrs) [ppm AI]
CCC12COCN1COC2 [BIOBAN1246] | 650 | 875 | 100 | 150 | 55 | 55 | 3000 | 4250 |  |  |  |  |  |  |  | 
CC1(C)COCN1 [BIOBAN 1135, 4,4-dimethyloxazolidine] |  |  |  |  |  |  |  |  | 525 | 875 | 100 | 100 | 55 | 55 | 1100 | 1100
OCCN1CN(CCO)CN(CCO)C1 [BIOBAN GK, hexahydro-1,3,5-tris(2-hydroxyethyl)-s-triazine] |  |  |  |  |  |  |  |  | 425 | 650 | 55 | 55 | 55 | 55 | 875 | 875
